In US6355799B1, “Substituted benzene compounds, process for their preparation, and herbicidal and defoliant compositions containing them” (ISK Americas Incorporated, priority 1997, dated 2002):

How the values were obtained:
Type in all cases: in vivo
[1] = tested on: redroot pigweed (Amaranthus retroflexus, AMARE); test: Pre-emerge test, greenhouse herbicide activity screening; settings: for pest or weed control at 63 g/ha / pest or weed control at 250 g/ha: Amaranthus retroflexus, pre-emergence, 336 h, pre-emerge, phytotoxicity rating 0-100 at 14 days after application, read-out: Pre-emerge Herbicidal Activity AMARE; for pest or weed control at 63 g/ha: rate 63 g ai/ha; for pest or weed control at 250 g/ha: rate 250 g ai/ha; for Pre-emerge herbicidal activity, phytotoxicity rating AMARE: rating scale 0-100, 14 days after application
In short: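 Rating: 0–100 visual injury, 14 DAA. Application: acetone, 187 l/ha, 15–1000 g ai/ha, flat-fan track sprayer with nozzle 40–45 cm above soil or canopy. Post-emerge runs used 0.25% v/v surfactant on 2–3 leaf plants.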

[2] = tested on: sicklepod (Cassia obtusifolia, CASOB); test: as above; settings: for pest or weed control at 63 g/ha / pest or weed control at 250 g/ha: Senna obtusifolia, pre-emergence, 336 h, pre-emerge, phytotoxicity rating 0-100 at 14 days after application, read-out: Pre-emerge Herbicidal Activity CASOB; for pest or weed control at 63 g/ha: rate 63 g ai/ha; for pest or weed control at 250 g/ha: rate 250 g ai/ha; for Pre-emerge herbicidal activity, phytotoxicity rating CASOB: rating scale 0-100, 14 days after application
In short: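 Herbicidal damage is scored 0 (none) to 100 (complete plant death) two weeks after a simulated field spray. Rates span 15–1000 g ai/ha, delivered in acetone at 187 l/ha. For post-emergence treatments, plants have 2–3 leaves and the spray carries 0.25% v/v non-ionic surfactant.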

[3] = tested on: redroot pigweed (Amaranthus retroflexus, AMARE); test: Post-emerge test, greenhouse herbicide activity screening; settings: Amaranthus retroflexus, post-emergence, 336 h, post-emerge, phytotoxicity rating 0-100 at 14 days after application, read-out: Post-emerge Herbicidal Activity AMARE; for pest or weed control at 63 g/ha: 63 g ai/ha; for pest or weed control at 250 g/ha: 250 g ai/ha
In short: (§1)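 Plants grown in 10 cm pots of sandy loam mix received acetone-dissolved compounds through a moving flat-fan nozzle. Doses ranged from 15 to 1000 g ai/ha. Pre-emerge pots were seeded one day earlier, post-emerge pots 8–21 days earlier. Fourteen days on, each pot was graded 0–100 for damage.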

[4] = tested on: large crabgrass (Digitaria sanguinalis, DIGSA); test: as above; settings: Digitaria sanguinalis, post-emergence, 336 h, post-emerge, phytotoxicity rating 0-100 at 14 days after application, read-out: Post-emerge Herbicidal Activity DIGSA; for pest or weed control at 63 g/ha: 63 g ai/ha; for pest or weed control at 250 g/ha: 250 g ai/ha
In short: as §1

[5] = tested on: sicklepod (Cassia obtusifolia, CASOB); test: as above; settings: Senna obtusifolia, post-emergence, 336 h, post-emerge, phytotoxicity rating 0-100 at 14 days after application, read-out: Post-emerge Herbicidal Activity CASOB; for pest or weed control at 63 g/ha: 63 g ai/ha; for pest or weed control at 250 g/ha: 250 g ai/ha
In short: as §1

[6] = tested on: ivyleaf morningglory (Ipomoea hederacea, IPOHE); test: as above; settings: Ipomoea, post-emergence, 336 h, post-emerge, phytotoxicity rating 0-100 at 14 days after application, read-out: Post-emerge Herbicidal Activity IPOHE; for pest or weed control at 63 g/ha: 63 g ai/ha; for pest or weed control at 250 g/ha: 250 g ai/ha
In short: as §1

[7] = tested on: barnyardgrass (Echinochloa crus-galli, ECHCG); test: as above; settings: Echinochloa crus-galli, post-emergence, 336 h, post-emerge, phytotoxicity rating 0-100 at 14 days after application, read-out: Post-emerge Herbicidal Activity ECHCG; for pest or weed control at 63 g/ha: 63 g ai/ha; for pest or weed control at 250 g/ha: 250 g ai/ha
In short: as §1

[8] = tested on: lambsquarters (Chenopodium album, CHEAL); test: as above; settings: Chenopodium album, post-emergence, 336 h, post-emerge, phytotoxicity rating 0-100 at 14 days after application, read-out: Post-emerge Herbicidal Activity CHEAL; for pest or weed control at 63 g/ha: 63 g ai/ha; for pest or weed control at 250 g/ha: 250 g ai/ha
In short: as §1

[9] = tested on: green foxtail (Setaria viridis, SETVI); test: as above; settings: Setaria viridis, post-emergence, 336 h, post-emerge, phytotoxicity rating 0-100 at 14 days after application, read-out: Post-emerge Herbicidal Activity SETVI; for pest or weed control at 63 g/ha: 63 g ai/ha; for pest or weed control at 250 g/ha: 250 g ai/ha
In short: as §1

[10] = tested on: velvetleaf (Abutilon theophrasti, ABUTH); test: as above; settings: Abutilon theophrasti, post-emergence, 336 h, post-emerge, phytotoxicity rating 0-100 at 14 days after application, read-out: Post-emerge Herbicidal Activity ABUTH; for pest or weed control at 63 g/ha: 63 g ai/ha; for pest or weed control at 250 g/ha: 250 g ai/ha
In short: as §1

Row | Structure (SMILES) | pest or weed control at 63 g/ha [1] [%] | pest or weed control at 250 g/ha [1] [%] | pest or weed control at 63 g/ha [2] [%] | pest or weed control at 250 g/ha [2] [%] | pest or weed control at 63 g/ha [3] [%] | pest or weed control at 250 g/ha [3] [%] | pest or weed control at 63 g/ha [4] [%] | pest or weed control at 250 g/ha [4] [%] | pest or weed control at 63 g/ha [5] [%] | pest or weed control at 250 g/ha [5] [%] | pest or weed control at 63 g/ha [6] [%] | pest or weed control at 250 g/ha [6] [%] | pest or weed control at 63 g/ha [7] [%] | pest or weed control at 250 g/ha [7] [%] | pest or weed control at 63 g/ha [8] [%] | pest or weed control at 250 g/ha [8] [%] | pest or weed control at 63 g/ha [9] [%] | pest or weed control at 250 g/ha [9] [%] | pest or weed control at 63 g/ha [10] [%] | pest or weed control at 250 g/ha [10] [%] | other results
1 | COc1c(Cl)cc(F)c(-n2nc(C)n(C(F)F)c2=O)c1NC(=O)c1ccc2ccccc2c1 [Compound 6-15] | 100 | 100 | 70 | 80 | 100 | 100 | 30 | 60 | 100 | 100 | 100 | 100 | 40 | 70 | 100 | 100 | 50 | 85 | 100 | 100 | 
2 | COc1c(Cl)cc(F)c(N2C(=O)c3ccccc3C2=O)c1NC(=O)c1ccc2ccccc2c1 [Compound 13-3, N-[4-chloro-6-fluoro-3-methoxy-2-(2-naphthoyl)aminophenyl]phthalimide] |  |  |  |  | 90 | 90 | 0 | 10 | 90 | 100 | 75 | 70 | 0 | 20 | 100 | 100 | 10 | 30 | 100 | 90 | Pre-emerge herbicidal activity, phytotoxicity rating AMARE ([1]; 63 g ai/ha): 100; Pre-emerge herbicidal activity, phytotoxicity rating AMARE ([1]; 250 g ai/ha): 100; Pre-emerge herbicidal activity, phytotoxicity rating CASOB ([2]; 63 g ai/ha): 0; Pre-emerge herbicidal activity, phytotoxicity rating CASOB ([2]; 250 g ai/ha): 30
3 | Cc1nn(-c2c(Cl)cc(Cl)cc2NC(=O)c2ccc3ccccc3c2)c(=O)n1C(F)F [Compound 6-16] | 30 | 50 | 0 | 0 | 100 | 90 | 20 | 30 | 80 | 60 | 100 | 75 | 20 | 40 | 100 | 100 | 30 | 60 | 100 | 100 | 
4 | COc1c(Cl)cc(Cl)c(-n2nc(C)n(C(F)F)c2=O)c1NC(=O)c1ccc2ccccc2c1 [Compound 6-17] | 90 | 100 | 0 | 20 | 60 | 70 | 0 | 20 | 50 | 70 | 50 | 70 | 0 | 30 | 90 | 90 | 0 | 30 | 90 | 100 | 
5 | COc1c(Cl)cc(F)c(-c2nn(C)c(C(F)(F)F)c2Cl)c1NC(=O)c1ccc2ccccc2c1 [Compound 7-14] | 40 | 80 | 10 | 50 |  | 70 |  | 10 |  | 60 |  | 100 |  | 10 |  | 90 |  | 20 |  | 95 | 
